US20110015119A1, “NOVEL SEMI-SYNTHETIC GLYCOPEPTIDES AS ANTIBACTERIAL AGENTS” (LEAD THERAPEUTICS, INC., priority 2009, published 2011)
In brackets after ≈: the same amount, converted by molar mass.

Experiments:
Assay type in all cases: cell-based
[1] = system: Staphylococcus aureus 100 (ATCC 29213); test: MIC by broth microdilution, SA 100; conditions: Staphylococcus aureus, ATCC29213, read-out: MIC SA 100
Outline: (§1)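 Clinical isolates, either susceptible or resistant to natural glycopeptides, were tested by broth microdilution in Mueller-Hinton medium as NCCLS recommends.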

[2] = system: Staphylococcus aureus 757 (MRSA); test: MIC by broth microdilution, SA 757; conditions: Staphylococcus aureus, MRSA, read-out: MIC SA 757
Outline: as §1

[3] = system: Staphylococcus aureus 2012 (VISA); test: MIC by broth microdilution, SA 2012; conditions: Staphylococcus aureus, VISA, read-out: MIC SA 2012, Staphylococcus aureus 2012 (VISA); class symbols
Outline: as §1

[4] = system: Staphylococcus epidermidis 835; test: MIC by broth microdilution, SE 835; conditions: Staphylococcus epidermidis, 835, read-out: MIC SE 835
Outline: as §1

[5] = system: Staphylococcus epidermidis 831 (MRSE); test: MIC by broth microdilution, SE 831; conditions: Staphylococcus epidermidis, MRSE, read-out: MIC SE 831
Outline: as §1

[6] = system: Enterococcus faecalis 101 (ATCC 29212); test: MIC by broth microdilution, EFc 101; conditions: Enterococcus faecalis, ATCC29212, read-out: MIC E FC 101, Enterococcus faecalis 101 (ATCC 29212); class symbols
Outline: as §1

[7] = system: Enterococcus faecalis 848 (VRE, Van A); test: MIC by broth microdilution, EFc 848; conditions: Enterococcus faecalis, VRE, read-out: MIC E FC 848, Enterococcus faecalis 848 (VRE, Van A); class symbols
Outline: as §1

Enterococcus faecium 800 = test: MIC by broth microdilution, EFcm 800; conditions: Enterococcus faecium, 800, read-out: MIC E FCM 800
Outline: as §1

[8] = system: Enterococcus faecium 752 (VRE, Van A); test: MIC by broth microdilution, EFcm 752; conditions: Enterococcus faecium, VRE, read-out: MIC E FCM 752, Enterococcus faecium 752 (VRE, Van A); class symbols
Outline: as §1

[9] = system: Streptococcus pneumoniae 1195 (ATCC 49619); test: MIC by broth microdilution, SPNE 1195; conditions: Streptococcus pneumoniae, ATCC49619, read-out: MIC S PNE 1195
Outline: as §1

[10] = system: Streptococcus pyogenes 712; test: MIC by broth microdilution, SPY 712; conditions: Streptococcus pyogenes, 712, read-out: MIC S PYO 712
Outline: as §1

Structure (SMILES)	MIC [1]	MIC [2]	MIC [3]	MIC [4]	MIC [5]	MIC [6]	MIC [7]	MIC (Enterococcus faecium 800)	MIC [8]	MIC [9]	MIC [10]
CCCCCCCC(C)NC(=O)Oc1cc(O)c2c(c1)[C@@H](C(=O)NC1C3CC4CC(C3)CC1C4)NC(=O)[C@H]1NC(=O)[C@H](NC(=O)[C@@H]3NC(=O)[C@H](CC(N)=O)NC(=O)[C@H](NC(=O)[C@@H](CC(C)C)NC)[C@H](O)c4ccc(c(Cl)c4)Oc4cc3cc(c4O[C@@H]3O[C@H](CO)[C@@H](O)[C@H](O)[C@H]3O[C@H]3C[C@](C)(N)[C@H](O)[C@H](C)O3)Oc3ccc(cc3Cl)[C@H]1O)c1ccc(O)c-2c1 (some centres unmarked) [Compound 312]	0.01 to 0.5 µg/mL (≈ 0.00571 to 0.285 µM)	0.01 to 0.5 µg/mL (≈ 0.00571 to 0.285 µM)	> 16 µg/mL	0.5 to 1 µg/mL (≈ 0.285 to 0.571 µM)	0.01 to 0.5 µg/mL (≈ 0.00571 to 0.285 µM)	0.01 to 0.5 µg/mL (≈ 0.00571 to 0.285 µM)	> 16 µg/mL	0.01 to 0.5 µg/mL (≈ 0.00571 to 0.285 µM)	0.5 to 1 µg/mL (≈ 0.285 to 0.571 µM)	0.01 to 0.5 µg/mL (≈ 0.00571 to 0.285 µM)	0.01 to 0.5 µg/mL (≈ 0.00571 to 0.285 µM)
CCCCCOc1ccc(S(=O)(=O)NCCCCCCNC(=O)Oc2cc(O)c3c(c2)[C@@H](C(=O)NC2C4CC5CC(C4)CC2C5)NC(=O)[C@H]2NC(=O)[C@H](NC(=O)[C@@H]4NC(=O)[C@H](CC(N)=O)NC(=O)[C@H](NC(=O)[C@@H](CC(C)C)NC)[C@H](O)c5ccc(c(Cl)c5)Oc5cc4cc(c5O[C@@H]4O[C@H](CO)[C@@H](O)[C@H](O)[C@H]4O[C@H]4C[C@](C)(N)[C@H](O)[C@H](C)O4)Oc4ccc(cc4Cl)[C@H]2O)c2ccc(O)c-3c2)cc1 (some centres unmarked) [Compound 317]	1 to 2 µg/mL (≈ 0.513 to 1.03 µM)	0.5 to 1 µg/mL (≈ 0.256 to 0.513 µM)	8 to 16 µg/mL (≈ 4.1 to 8.2 µM)	2 to 4 µg/mL (≈ 1.03 to 2.05 µM)	1 to 2 µg/mL (≈ 0.513 to 1.03 µM)	1 to 2 µg/mL (≈ 0.513 to 1.03 µM)	8 to 16 µg/mL (≈ 4.1 to 8.2 µM)	0.01 to 0.5 µg/mL (≈ 0.00513 to 0.256 µM)	1 to 2 µg/mL (≈ 0.513 to 1.03 µM)	0.01 to 0.5 µg/mL (≈ 0.00513 to 0.256 µM)	0.01 to 0.5 µg/mL (≈ 0.00513 to 0.256 µM)
CCOc1ccc(NC(=O)Oc2cc(O)c3c(c2)[C@@H](C(=O)NC2C4CC5CC(C4)CC2C5)NC(=O)[C@H]2NC(=O)[C@H](NC(=O)[C@@H]4NC(=O)[C@H](CC(N)=O)NC(=O)[C@H](NC(=O)[C@@H](CC(C)C)NC)[C@H](O)c5ccc(c(Cl)c5)Oc5cc4cc(c5O[C@@H]4O[C@H](CO)[C@@H](O)[C@H](O)[C@H]4O[C@H]4C[C@](C)(N)[C@H](O)[C@H](C)O4)Oc4ccc(cc4Cl)[C@H]2O)c2ccc(O)c-3c2)cc1 (some centres unmarked) [Compound 330]	0.5 to 1 µg/mL (≈ 0.286 to 0.573 µM)	0.5 to 1 µg/mL (≈ 0.286 to 0.573 µM)	4 to 8 µg/mL (≈ 2.29 to 4.58 µM)	1 to 2 µg/mL (≈ 0.573 to 1.15 µM)	1 to 2 µg/mL (≈ 0.573 to 1.15 µM)	1 to 2 µg/mL (≈ 0.573 to 1.15 µM)	> 16 µg/mL	0.01 to 0.5 µg/mL (≈ 0.00573 to 0.286 µM)	> 16 µg/mL	0.01 to 0.5 µg/mL (≈ 0.00573 to 0.286 µM)	0.01 to 0.5 µg/mL (≈ 0.00573 to 0.286 µM)
CCCCc1ccc(NC(=O)Oc2cc(O)c3c(c2)[C@@H](C(=O)NC2C4CC5CC(C4)CC2C5)NC(=O)[C@H]2NC(=O)[C@H](NC(=O)[C@@H]4NC(=O)[C@H](CC(N)=O)NC(=O)[C@H](NC(=O)[C@@H](CC(C)C)NC)[C@H](O)c5ccc(c(Cl)c5)Oc5cc4cc(c5O[C@@H]4O[C@H](CO)[C@@H](O)[C@H](O)[C@H]4O[C@H]4C[C@](C)(N)[C@H](O)[C@H](C)O4)Oc4ccc(cc4Cl)[C@H]2O)c2ccc(O)c-3c2)cc1 (some centres unmarked) [Compound 331]	0.01 to 0.5 µg/mL (≈ 0.00569 to 0.284 µM)	0.01 to 0.5 µg/mL (≈ 0.00569 to 0.284 µM)	1 to 2 µg/mL (≈ 0.569 to 1.14 µM)	0.5 to 1 µg/mL (≈ 0.284 to 0.569 µM)	0.01 to 0.5 µg/mL (≈ 0.00569 to 0.284 µM)	0.5 to 1 µg/mL (≈ 0.284 to 0.569 µM)	> 16 µg/mL	0.01 to 0.5 µg/mL (≈ 0.00569 to 0.284 µM)	2 to 4 µg/mL (≈ 1.14 to 2.28 µM)	0.01 to 0.5 µg/mL (≈ 0.00569 to 0.284 µM)	0.01 to 0.5 µg/mL (≈ 0.00569 to 0.284 µM)
